In patent publication US12448392B2, “Spiropiperidine derivatives” (89BIO LTD, priority 2016, dated 2025) one finds IC50 data, which are given here for 37 molecules.

In one test the target is T1, recombinant human baculovirus-expressed GST-tagged FASN (Homo sapiens, UniProt P49327).
T1 construct: GST
T1 sequence (P49327 whole entry): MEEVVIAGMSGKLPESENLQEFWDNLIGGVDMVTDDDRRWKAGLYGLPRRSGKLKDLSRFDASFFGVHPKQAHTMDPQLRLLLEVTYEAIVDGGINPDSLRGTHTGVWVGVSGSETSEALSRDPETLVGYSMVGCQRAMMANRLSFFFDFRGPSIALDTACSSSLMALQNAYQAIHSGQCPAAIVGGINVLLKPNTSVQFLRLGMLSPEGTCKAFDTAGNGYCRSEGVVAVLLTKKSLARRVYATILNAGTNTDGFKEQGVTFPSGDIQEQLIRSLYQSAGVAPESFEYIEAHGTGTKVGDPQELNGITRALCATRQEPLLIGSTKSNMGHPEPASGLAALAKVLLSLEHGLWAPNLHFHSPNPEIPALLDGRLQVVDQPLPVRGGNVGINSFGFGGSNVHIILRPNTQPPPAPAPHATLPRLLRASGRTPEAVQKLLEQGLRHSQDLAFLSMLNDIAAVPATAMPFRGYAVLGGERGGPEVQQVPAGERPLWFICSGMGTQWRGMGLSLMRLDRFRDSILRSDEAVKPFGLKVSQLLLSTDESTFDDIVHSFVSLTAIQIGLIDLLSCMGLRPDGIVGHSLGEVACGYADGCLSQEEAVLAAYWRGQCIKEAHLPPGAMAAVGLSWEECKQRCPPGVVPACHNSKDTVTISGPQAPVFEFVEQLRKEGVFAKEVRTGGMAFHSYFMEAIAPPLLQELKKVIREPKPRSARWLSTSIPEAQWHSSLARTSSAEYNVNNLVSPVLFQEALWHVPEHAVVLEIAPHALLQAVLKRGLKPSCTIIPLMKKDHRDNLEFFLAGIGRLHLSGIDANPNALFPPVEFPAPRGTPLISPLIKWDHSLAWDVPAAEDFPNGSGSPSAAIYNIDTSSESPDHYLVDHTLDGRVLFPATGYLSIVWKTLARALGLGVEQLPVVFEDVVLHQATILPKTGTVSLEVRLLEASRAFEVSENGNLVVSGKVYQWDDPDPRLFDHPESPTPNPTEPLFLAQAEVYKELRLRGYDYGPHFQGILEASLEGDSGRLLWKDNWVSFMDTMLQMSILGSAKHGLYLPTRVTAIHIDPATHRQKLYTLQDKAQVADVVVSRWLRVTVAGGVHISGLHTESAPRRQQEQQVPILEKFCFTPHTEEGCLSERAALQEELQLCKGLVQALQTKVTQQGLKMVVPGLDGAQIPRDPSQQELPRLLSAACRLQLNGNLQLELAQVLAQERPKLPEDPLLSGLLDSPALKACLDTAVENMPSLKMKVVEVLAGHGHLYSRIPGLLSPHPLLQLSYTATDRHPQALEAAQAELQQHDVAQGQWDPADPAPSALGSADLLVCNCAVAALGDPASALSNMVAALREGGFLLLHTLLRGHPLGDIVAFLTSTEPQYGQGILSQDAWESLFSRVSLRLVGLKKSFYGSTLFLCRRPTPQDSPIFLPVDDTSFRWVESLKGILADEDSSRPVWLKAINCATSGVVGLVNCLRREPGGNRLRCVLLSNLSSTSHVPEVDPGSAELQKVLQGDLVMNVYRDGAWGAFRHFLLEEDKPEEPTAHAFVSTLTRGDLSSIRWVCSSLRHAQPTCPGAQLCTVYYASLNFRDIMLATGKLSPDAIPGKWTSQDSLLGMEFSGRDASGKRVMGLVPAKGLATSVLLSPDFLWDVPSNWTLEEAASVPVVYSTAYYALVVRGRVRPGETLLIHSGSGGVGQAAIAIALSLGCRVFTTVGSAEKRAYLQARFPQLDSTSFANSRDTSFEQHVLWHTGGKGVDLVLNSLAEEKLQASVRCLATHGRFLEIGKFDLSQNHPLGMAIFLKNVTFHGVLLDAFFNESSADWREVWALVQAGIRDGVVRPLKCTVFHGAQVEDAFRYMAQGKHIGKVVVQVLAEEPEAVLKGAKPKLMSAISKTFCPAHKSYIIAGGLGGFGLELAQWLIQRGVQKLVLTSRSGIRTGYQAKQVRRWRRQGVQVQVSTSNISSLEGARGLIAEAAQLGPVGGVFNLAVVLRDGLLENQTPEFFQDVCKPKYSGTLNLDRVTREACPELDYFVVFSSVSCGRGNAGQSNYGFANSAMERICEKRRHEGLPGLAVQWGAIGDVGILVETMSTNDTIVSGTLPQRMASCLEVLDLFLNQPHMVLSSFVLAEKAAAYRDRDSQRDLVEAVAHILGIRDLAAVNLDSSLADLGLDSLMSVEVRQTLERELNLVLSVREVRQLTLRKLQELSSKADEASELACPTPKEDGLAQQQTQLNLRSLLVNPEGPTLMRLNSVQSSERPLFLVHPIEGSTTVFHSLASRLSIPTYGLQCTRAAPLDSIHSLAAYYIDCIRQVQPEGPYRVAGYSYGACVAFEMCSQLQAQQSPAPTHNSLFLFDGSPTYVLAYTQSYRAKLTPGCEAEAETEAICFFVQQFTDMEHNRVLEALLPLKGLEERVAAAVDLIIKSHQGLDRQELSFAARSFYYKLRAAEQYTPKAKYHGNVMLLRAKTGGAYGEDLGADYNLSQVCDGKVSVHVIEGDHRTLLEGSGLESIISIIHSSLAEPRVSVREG
The test is described as follows: biochemical.
Conditions: not given
In the case of `Cc1c(-c2ccc3c(c2)CCOC2(CCN(C(N)=O)CC2)O3)ccc2cccnc12` [Example 77, 7-(8-methyl-7-quinolyl)spiro[4,5-dihydro-1,3-benzodioxepine-2,4′-piperidine]-1′-carboxamide], the IC50 lay in the range of 100 to 999 nM.

As to `CCNC(=O)N1CCC2(CC1)OCCc1cc(-c3ccc4cccnc4c3C)ccc1O2` [Example 78, N-Ethyl-7-(8-methyl-7-quinolyl)spiro[4,5-dihydro-1,3-benzodioxepine-2,4′-piperidine]-1′-carboxamide], the half-inhibitory concentration (IC50) lay in the range of 100 to 999 nM. As to `CCONC(=O)N1CCC2(CC1)OCCc1cc(-c3ccc4cccnc4c3C)ccc1O2` [Example 79, N-Ethoxy-7-(8-methyl-7-quinolyl)spiro[4,5-dihydro-1,3-benzodioxepine-2,4′-piperidine]-1′-carboxamide], the IC50 was in the range of 1 to 99 nM.

As for `CONC(=O)N1CCC2(CC1)OCCc1cc(-c3ccc4cccnc4c3C)ccc1O2` [Example 80, N-Methoxy-7-(8-methyl-7-quinolyl)spiro[4,5-dihydro-1,3-benzodioxepine-2,4′-piperidine]-1′-carboxamide], the IC50 was 1 to 99 nM. As to `Cn1cnc2cc(-c3ccc4c(c3)COC3(CCN(C(N)=O)CC3)O4)ccc21` [Example 82, 6-(1-Methylbenzimidazol-5-yl)spiro[4H-1,3-benzodioxine-2,4′-piperidine]-1′-carboxamide], the concentration for half-maximal inhibition (IC50) lay within 100 to 999 nM. In the case of `CC(C)(C)OC(=O)N1CCC2(CC1)OCc1cc(-c3cnc4sccc4c3)ccc1O2` [Example 84, tert-Butyl 6-thieno[2,3-b]pyridin-5-ylspiro[4H-1,3-benzodioxine-2,4′-piperidine]-1′-carboxylate], the IC50 lay in the range of 1000 to 10000 nM. Regarding `NC(=O)N1CCC2(CC1)OCc1cc(-c3cnc4sccc4c3)ccc1O2` [Example 89, 6-thieno[2,3-b]pyridin-5-ylspiro[4H-1,3-benzodioxine-2,4′-piperidine]-1′-carboxamide], the 50% inhibitory concentration (IC50) was 1000 to 10000 nM. Same read-out and setting: the value for `CCNC(=O)N1CCC2(CC1)OCc1cc(-c3ccc4cccnc4c3C)ccc1O2` [Example 117, N-Ethyl-6-(8-methyl-7-quinolyl)spiro[4H-1,3-benzodioxine-2,4′-piperidine]-1′-carboxamide] was 1 to 99 nM.

In the case of `Cc1c(-c2ccc3c(c2)COC2(CCN(C(N)=O)CC2)O3)ccc2cccnc12` [Example 118, 6-(8-Methyl-7-quinolyl)spiro[4H-1,3-benzodioxine-2,4′-piperidine]-1′-carboxamide], the half-maximal inhibitory concentration (IC50) fell in the range of 1 to 99 nM. For `Cc1c(-c2ccc3c(c2)COC2(CCN(C(=O)NC(C)C)CC2)O3)ccc2cccnc12` [Example 119, N-Isopropyl-6-(8-methyl-7-quinolyl)spiro[4H-1,3-benzodioxine-2,4′-piperidine]-1′-carboxamide], the concentration for half-maximal inhibition (IC50) fell in the range of 1 to 99 nM. Same read-out and setting: in the case of `CCONC(=O)N1CCC2(CC1)OCc1cc(-c3ccc4cccnc4c3C)ccc1O2` [Example 121, N-Ethoxy-6-(8-methyl-7-quinolyl)spiro[4H-1,3-benzodioxine-2,4′-piperidine]-1′-carboxamide] it was 1 to 99 nM. As for `CONC(=O)N1CCC2(CC1)OCc1cc(-c3ccc4cccnc4c3C)ccc1O2` [Example 122, N-Methoxy-6-(8-methyl-7-quinolyl)spiro[4H-1,3-benzodioxine-2,4′-piperidine]-1′-carboxamide], the IC50 was 1 to 99 nM.

Staying with this test, now noted: 5 nM FASN, 150 μM NADPH, 10 μM acetyl-CoA, 25 μM malonyl-CoA, 90 minutes incubation; read-out: IC50 data for Compounds of Formula I, Activity.
Take `Cn1cnc2cc(-c3ccc4c(c3)CCC3(CCN(C(N)=O)CC3)O4)ccc21` [Example 81, 6-(1-Methylbenzimidazol-5-yl)spiro[chromane-2,4′-piperidine]-1′-carboxamide]: the 50% inhibitory concentration (IC50) is 100 to 999 nM.

Take `NC(=O)N1CCC2(CCc3cc(-c4ccc5scnc5c4)ccc3O2)CC1` [Example 83, 6-(1,3-Benzothiazol-5-yl)spiro[chromane-2,4′-piperidine]-1′-carboxamide]: the half-maximal inhibitory concentration (IC50) is 100 to 999 nM. As to `NC(=O)N1CCC2(CCc3cc(-c4cnc5sccc5c4)ccc3O2)CC1` [Example 85, 6-Thieno[2,3-b]pyridin-5-ylspiro[chromane-2,4′-piperidine]-1′-carboxamide], the IC50 fell in the range of 1000 to 10000 nM. The same measure, in the same setting: the value for `NC(=O)N1CCC2(CCc3cc(-c4ccc5ocnc5c4)ccc3O2)CC1` [Example 86, 6-(1,3-Benzoxazol-5-yl)spiro[chromane-2,4′-piperidine]-1′-carboxamide] was 1000 to 10000 nM. Turning to `CCNC(=O)N1CCC2(CCc3cc(-c4ccc5cccnc5c4C)ccc3O2)CC1` [Example 97, N-Ethyl-6-(8-methyl-7-quinolyl)spiro[chromane-2,4′-piperidine]-1′-carboxamide], the IC50 is 1 to 99 nM. The same measure, in the same setting: the value for `Cc1c(-c2ccc3c(c2)CCC2(CCN(C(=O)NC(C)C)CC2)O3)ccc2cccnc12` [Example 98, N-Isopropyl-6-(8-methyl-7-quinolyl)spiro[chromane-2,4′-piperidine]-1′-carboxamide] was 100 to 999 nM; that for `CCCNC(=O)N1CCC2(CCc3cc(-c4ccc5cccnc5c4C)ccc3O2)CC1` [Example 99, 6-(8-Methyl-7-quinolyl)-N-propyl-spiro[chromane-2,4′-piperidine]-1′-carboxamide] was 1 to 99 nM. `Cc1c(-c2ccc3c(c2)CCC2(CCN(C(=O)NCC4CC4)CC2)O3)ccc2cccnc12` [Example 100, N-(Cyclopropylmethyl)-6-(8-methyl-7-quinolyl)spiro[chromane-2,4′-piperidine]-1′-carboxamide]: the half-maximal inhibitory concentration (IC50) lay within 1 to 99 nM.

Consider `CCONC(=O)N1CCC2(CCc3cc(-c4ccc5cccnc5c4C)ccc3O2)CC1` [Example 101, N-Ethoxy-6-(8-methyl-7-quinolyl)spiro[chromane-2,4′-piperidine]-1′-carboxamide], for which the IC50 is 1 to 99 nM.

On to `CCCONC(=O)N1CCC2(CCc3cc(-c4ccc5cccnc5c4C)ccc3O2)CC1` [Example 102, 6-(8-Methyl-7-quinolyl)-N-propoxy-spiro[chromane-2,4′-piperidine]-1′-carboxamide], for which the IC50 was 1 to 99 nM. On the same count and under the same terms, the value for `Cc1c(-c2ccc3c(c2)CCC2(CCN(C(=O)NOC(C)C)CC2)O3)ccc2cccnc12` [Example 103, N-Isopropoxy-6-(8-methyl-7-quinolyl)spiro[chromane-2,4′-piperidine]-1′-carboxamide] was 1 to 99 nM.

With `Cc1c(-c2ccc3c(c2)CCC2(CCN(C(=O)NOCC(C)C)CC2)O3)ccc2cccnc12` [Example 104, N-Isobutoxy-6-(8-methyl-7-quinolyl)spiro[chromane-2,4′-piperidine]-1′-carboxamide], the IC50 lay in the range of 100 to 999 nM.

In the case of `Cc1c(-c2ccc3c(c2)CCC2(CCN(C(=O)NO)CC2)O3)ccc2cccnc12` [Example 105, 6-(8-methyl-7-quinolyl)spiro[chromane-2,4′-piperidine]-1′-carbohydroxamic acid], the concentration for half-maximal inhibition (IC50) is 100 to 999 nM. Still for that read-out and setting: in the case of `Cc1c(-c2ccc3c(c2)CCC2(CCN(C(N)=O)CC2)O3)ccc2cccnc12` [Example 106, 6-(8-Methyl-7-quinolyl)spiro[chromane-2,4′-piperidine]-1′-carboxamide] it was 1 to 99 nM; in that of `CCONC(=O)N1CCC2(CCc3cc(-c4ccc5nccn5c4C)ccc3O2)CC1` [Example 107, N-Ethoxy-6-(5-methylimidazo[1,2-a]pyridin-6-yl)spiro[chromane-2,4′-piperidine]-1′-carboxamide], 1 to 99 nM. Consider `Cc1c(-c2ccc3c(c2)CCC2(CCN(C(=O)NOC(C)C)CC2)O3)ccc2nccn12` [Example 108, N-Isopropoxy-6-(5-methylimidazo[1,2-a]pyridin-6-yl)spiro[chromane-2,4′-piperidine]-1′-carboxamide], for which the IC50 is 1 to 99 nM. In the case of `Cc1c(-c2ccc3c(c2)CCC2(CCN(C(N)=O)CC2)O3)ccc2nccn12` [Example 109, 6-(5-Methylimidazo[1,2-a]pyridin-6-yl)spiro[chromane-2,4′-piperidine]-1′-carboxamide], the IC50 was in the range of 100 to 999 nM. With `CCNC(=O)N1CCC2(CCc3cc(-c4ccc5nccn5c4C)ccc3O2)CC1` [Example 110, N-Ethyl-6-(5-methylimidazo[1,2-a]pyridin-6-yl)spiro[chromane-2,4′-piperidine]-1′-carboxamide], the half-maximal inhibitory concentration (IC50) fell in the range of 1 to 99 nM. On the same count and under the same terms, the value for `Cc1c(-c2ccc3c(c2)CCC2(CCN(C(=O)NC(C)C)CC2)O3)ccc2nccn12` [Example 111, N-Isopropyl-6-(5-methylimidazo[1,2-a]pyridin-6-yl)spiro[chromane-2,4′-piperidine]-1′-carboxamide] was 100 to 999 nM. As for `CCNC(=O)N1CCC2(CCc3cc(-c4ccc5ccnn5c4C)ccc3O2)CC1` [Example 112, N-Ethyl-6-(7-methylpyrazolo[1,5-a]pyridin-6-yl)spiro[chromane-2,4′-piperidine]-1′-carboxamide], the IC50 was 1 to 99 nM. On the same count and under the same terms, the value for `Cc1c(-c2ccc3c(c2)CCC2(CCN(C(=O)NC(C)C)CC2)O3)ccc2ccnn12` [Example 113, N-Isopropyl-6-(7-methylpyrazolo[1,5-a]pyridin-6-yl)spiro[chromane-2,4′-piperidine]-1′-carboxamide] was 100 to 999 nM; that for `Cc1c(-c2ccc3c(c2)CCC2(CCN(C(N)=O)CC2)O3)ccc2ccnn12` [Example 114, 6-(7-Methylpyrazolo[1,5-a]pyridin-6-yl)spiro[chromane-2,4′-piperidine]-1′-carboxamide] was 1 to 99 nM; that for `CCONC(=O)N1CCC2(CCc3cc(-c4ccc5ccnn5c4C)ccc3O2)CC1` [Example 115, N-Ethoxy-6-(7-methylpyrazolo[1,5-a]pyridin-6-yl)spiro[chromane-2,4′-piperidine]-1′-carboxamide] was 1 to 99 nM. The same measure, in the same setting: the value for `Cc1c(-c2ccc3c(c2)CCC2(CCN(C(=O)NOC(C)C)CC2)O3)ccc2ccnn12` [Example 116, N-Isopropoxy-6-(7-methylpyrazolo[1,5-a]pyridin-6-yl)spiro[chromane-2,4′-piperidine]-1′-carboxamide] was 1 to 99 nM; that for `CONC(=O)N1CCC2(CCc3cc(-c4ccc5cccnc5c4C)ccc3O2)CC1` [Example 120, N-Methoxy-6-(8-methyl-7-quinolyl)spiro[chromane-2,4′-piperidine]-1′-carboxamide] was 1 to 99 nM.

In general, IC50 refers to the midpoint of a concentration-inhibition curve.
